# Calls of active or inactive are those of the source. No cut-off for these calls is given here.
# Assays:
# MCF7 [1] = assay: Induction of apoptosis in human MCF7 cells assessed as increase in Bax expression at 10 uM after 24 hrs by immunofluorescence staining method; type: functional, cell-based
# [2] = target: Mitogen-activated protein kinase 3 (Homo sapiens) (UniProt P27361); assay: Binding affinity to ERK1 at 1 uM by high throughput binding assay relative to control
# MCF7 [3] = assay: Induction of apoptosis in human MCF7 cells assessed as nuclear condensation at 10 uM after 24 hrs by DAPI staining; type: functional, cell-based
# HUVEC [4] = assay: Antiangiogenic activity in HUVEC assessed as inhibition of wound-induced cell migration after 16 hrs; type: functional, cell-based; conditions: Homo sapiens
# [5] = target: Fibroblast growth factor receptor 2 (Homo sapiens) (UniProt P21802); assay: Binding affinity to FGFR2 at 1 uM by high throughput binding assay relative to control
# MCF7 [6] = assay: Induction of apoptosis in human MCF7 cells assessed as DNA strand breaks at 10 uM after 24 hrs by TUNEL assay; type: functional, cell-based
# [7] = target: Serine/threonine-protein kinase PLK1 (Homo sapiens) (UniProt P53350); assay: Binding affinity to PLK1 at 1 uM by high throughput binding assay relative to control
# [8] = target: Hypoxia-inducible factor 1-alpha (Homo sapiens) (UniProt Q16665); assay: Inhibition of HIF1alpha-mediated VEGF production in human MCF7 cells under hypoxic condition at 0.1 to 10 uM after 6 hrs; type: cell-based
# Hypoxia-inducible factor 1-alpha (Homo sapiens), sequence (Q16665 whole entry, looked up): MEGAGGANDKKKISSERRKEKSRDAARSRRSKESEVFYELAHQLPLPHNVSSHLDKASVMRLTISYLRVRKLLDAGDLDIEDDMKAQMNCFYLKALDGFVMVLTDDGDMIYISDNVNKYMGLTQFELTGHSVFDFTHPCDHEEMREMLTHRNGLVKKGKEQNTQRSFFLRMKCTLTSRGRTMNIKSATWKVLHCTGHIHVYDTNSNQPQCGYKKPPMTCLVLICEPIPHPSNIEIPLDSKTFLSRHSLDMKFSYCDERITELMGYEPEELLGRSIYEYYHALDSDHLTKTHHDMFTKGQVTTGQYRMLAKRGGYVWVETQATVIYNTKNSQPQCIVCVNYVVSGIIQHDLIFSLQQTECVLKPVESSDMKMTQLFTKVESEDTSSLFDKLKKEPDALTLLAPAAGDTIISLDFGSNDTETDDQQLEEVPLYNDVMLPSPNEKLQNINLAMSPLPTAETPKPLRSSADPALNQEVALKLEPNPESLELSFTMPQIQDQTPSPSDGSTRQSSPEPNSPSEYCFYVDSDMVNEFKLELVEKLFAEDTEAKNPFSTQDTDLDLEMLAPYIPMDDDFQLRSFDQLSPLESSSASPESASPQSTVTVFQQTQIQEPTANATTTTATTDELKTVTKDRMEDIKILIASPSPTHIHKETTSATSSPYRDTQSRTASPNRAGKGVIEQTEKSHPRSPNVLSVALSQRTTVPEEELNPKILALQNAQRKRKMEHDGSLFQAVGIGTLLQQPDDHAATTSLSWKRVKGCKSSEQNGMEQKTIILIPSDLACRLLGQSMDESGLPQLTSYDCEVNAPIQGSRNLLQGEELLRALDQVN
# [9] = target: T1, Mast/stem cell growth factor receptor Kit (Homo sapiens, UniProt P10721); assay: Inhibition of KIT by radiometric kinase assay
# T1 sequence (P10721 whole entry, canonical isoform): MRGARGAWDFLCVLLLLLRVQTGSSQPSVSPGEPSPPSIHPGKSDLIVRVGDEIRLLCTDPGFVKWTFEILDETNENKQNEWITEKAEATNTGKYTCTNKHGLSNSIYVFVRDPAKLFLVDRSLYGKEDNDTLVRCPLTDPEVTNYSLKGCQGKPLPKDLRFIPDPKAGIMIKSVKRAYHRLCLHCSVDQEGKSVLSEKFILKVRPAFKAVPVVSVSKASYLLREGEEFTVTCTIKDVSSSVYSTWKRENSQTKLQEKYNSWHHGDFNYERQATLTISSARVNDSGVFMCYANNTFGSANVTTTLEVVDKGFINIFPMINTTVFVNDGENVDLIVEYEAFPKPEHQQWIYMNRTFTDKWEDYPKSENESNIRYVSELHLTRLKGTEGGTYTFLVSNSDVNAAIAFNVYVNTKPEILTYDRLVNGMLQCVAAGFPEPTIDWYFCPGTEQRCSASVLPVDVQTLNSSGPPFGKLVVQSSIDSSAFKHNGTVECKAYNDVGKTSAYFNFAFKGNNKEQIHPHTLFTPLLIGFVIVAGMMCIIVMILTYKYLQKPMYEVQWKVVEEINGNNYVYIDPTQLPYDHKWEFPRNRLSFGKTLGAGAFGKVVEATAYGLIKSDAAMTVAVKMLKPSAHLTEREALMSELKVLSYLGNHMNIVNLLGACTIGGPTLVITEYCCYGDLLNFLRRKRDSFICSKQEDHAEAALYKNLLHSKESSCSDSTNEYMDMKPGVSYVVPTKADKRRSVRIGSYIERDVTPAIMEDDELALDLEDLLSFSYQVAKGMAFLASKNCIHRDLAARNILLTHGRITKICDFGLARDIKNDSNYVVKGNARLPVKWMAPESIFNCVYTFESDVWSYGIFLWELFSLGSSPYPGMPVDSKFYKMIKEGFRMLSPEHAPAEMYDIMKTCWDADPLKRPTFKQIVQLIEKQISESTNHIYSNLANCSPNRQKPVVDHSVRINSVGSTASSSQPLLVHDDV
# [10] = target: Phosphatidylinositol 4,5-bisphosphate 3-kinase catalytic subunit alpha isoform (Homo sapiens, UniProt P42336); assay: Binding affinity to PI3KCA at 1 uM by high throughput binding assay relative to control
# [11] = target: 3-phosphoinositide-dependent protein kinase 1 (Homo sapiens) (UniProt O15530); assay: Binding affinity to PDPK1 at 1 uM by high throughput binding assay relative to control
# MCF7 [12] = assay: Induction of apoptosis in human MCF7 cells assessed as decrease in Bcl-2 expression at 10 uM after 24 hrs by immunofluorescence staining method; type: functional, cell-based
# [13] = target: Aurora kinase B (Homo sapiens) (UniProt Q96GD4); assay: Binding affinity to AURKB at 1 uM by high throughput binding assay relative to control
# [14] = target: RAC-beta serine/threonine-protein kinase (Homo sapiens) (UniProt P31751); assay: Binding affinity to AKT2 at 1 uM by high throughput binding assay relative to control
# RAC-beta serine/threonine-protein kinase (Homo sapiens), sequence (P31751 whole entry): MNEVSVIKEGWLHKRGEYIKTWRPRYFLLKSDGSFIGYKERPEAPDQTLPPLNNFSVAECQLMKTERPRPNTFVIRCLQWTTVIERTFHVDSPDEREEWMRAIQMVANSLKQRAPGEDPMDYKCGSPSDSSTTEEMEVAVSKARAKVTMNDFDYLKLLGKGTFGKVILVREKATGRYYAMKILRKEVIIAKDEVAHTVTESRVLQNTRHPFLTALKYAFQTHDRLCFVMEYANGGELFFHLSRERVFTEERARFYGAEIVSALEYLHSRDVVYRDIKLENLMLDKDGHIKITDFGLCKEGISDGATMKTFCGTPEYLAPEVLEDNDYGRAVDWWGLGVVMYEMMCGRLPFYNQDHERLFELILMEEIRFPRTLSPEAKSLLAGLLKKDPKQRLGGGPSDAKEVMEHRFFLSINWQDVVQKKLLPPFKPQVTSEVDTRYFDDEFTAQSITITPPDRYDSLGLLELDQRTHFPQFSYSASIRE
# [15] = target: RAC-alpha serine/threonine-protein kinase (Homo sapiens) (UniProt P31749); assay: Binding affinity to AKT1 at 1 uM by high throughput binding assay relative to control
# MCF7 [16] = assay: Induction of apoptosis in human MCF7 cells assessed as increase in cytochrome C expression at 10 uM after 24 hrs by immunofluorescence staining method; type: functional, cell-based
# [17] = target: Platelet-derived growth factor receptor alpha (Homo sapiens) (UniProt P16234); assay: Binding affinity to PDGFRalpha at 1 uM by high throughput binding assay relative to control
# [18] = target: Aurora kinase A (Homo sapiens) (UniProt O14965); assay: Binding affinity to AURKA at 1 uM by high throughput binding assay relative to control
# Aurora kinase A (Homo sapiens), sequence (O14965 whole entry): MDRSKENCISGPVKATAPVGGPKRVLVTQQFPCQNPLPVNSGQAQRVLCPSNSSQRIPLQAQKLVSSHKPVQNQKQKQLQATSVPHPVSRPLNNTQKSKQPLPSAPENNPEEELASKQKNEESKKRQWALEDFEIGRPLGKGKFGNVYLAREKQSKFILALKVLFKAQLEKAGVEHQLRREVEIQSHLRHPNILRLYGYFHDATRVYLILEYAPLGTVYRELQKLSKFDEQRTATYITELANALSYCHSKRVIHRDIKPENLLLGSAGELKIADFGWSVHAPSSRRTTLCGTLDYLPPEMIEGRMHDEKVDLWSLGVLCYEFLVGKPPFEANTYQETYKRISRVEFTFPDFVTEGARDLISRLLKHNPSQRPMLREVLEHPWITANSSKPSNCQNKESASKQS
# [19] = target: Dual specificity mitogen-activated protein kinase kinase 2 (Homo sapiens) (UniProt P36507); assay: Binding affinity to MEK2 at 1 uM by high throughput binding assay relative to control
# [20] = target: Epidermal growth factor receptor (Homo sapiens) (UniProt P00533); assay: Binding affinity to EGFR at 1 uM by high throughput binding assay relative to control
# [21] = target: Hepatocyte growth factor receptor (Homo sapiens) (UniProt P08581); assay: Binding affinity to MET at 1 uM by high throughput binding assay relative to control
# [22] = target: Cyclin-dependent kinase 19 (Homo sapiens) (UniProt Q9BWU1); assay: Binding affinity to CDK11 at 1 uM by high throughput binding assay relative to control
# [23] = target: Serine/threonine-protein kinase PAK 1 (Homo sapiens) (UniProt Q13153); assay: Binding affinity to PAK1 at 1 uM by high throughput binding assay relative to control
# [24] = target: Serine/threonine-protein kinase pim-1 (Homo sapiens) (UniProt P11309); assay: Binding affinity to PIM1 at 1 uM by high throughput binding assay relative to control
# [25] = target: Serine/threonine-protein kinase B-raf (Homo sapiens) (UniProt P15056); assay: Binding affinity to BRAF at 1 uM by high throughput binding assay relative to control
# MCF7 [26] = assay: Cytotoxicity against human MCF7 cells assessed as growth inhibition at 0.1 to 50 uM after 48 hrs by MTT assay; type: functional
# [27] = target: Serine/threonine-protein kinase PLK3 (Homo sapiens) (UniProt Q9H4B4); assay: Binding affinity to PLK3 at 1 uM by high throughput binding assay relative to control
# [28] = target: Glycogen synthase kinase-3 beta (Homo sapiens) (UniProt P49841); assay: Binding affinity to GSK3beta at 1 uM by high throughput binding assay relative to control
# MCF7 [29] = assay: Induction of apoptosis in human MCF7 cells assessed as increase in cleaved caspase-3 expression at 10 uM after 24 hrs by immunofluorescence staining method; type: functional, cell-based
# MCF7 [30] = assay: Induction of apoptosis in human MCF7 cells assessed as nuclear fragmentation at 10 uM after 24 hrs by DAPI staining; type: functional, cell-based
# [31] = target: Focal adhesion kinase 1 (Homo sapiens) (UniProt Q05397); assay: Binding affinity to FAK at 1 uM by high throughput binding assay relative to control
# [32] = target: Mitogen-activated protein kinase 14 (Homo sapiens) (UniProt Q16539); assay: Binding affinity to P38alpha at 1 uM by high throughput binding assay relative to control
# MCF7 [33] = conditions: Homo sapiens
# Description: (§1) Cytotoxicity against human MCF7 cells after 48 hrs by MTT assay
# SK-BR-3 = assay: Cytotoxicity against human SKBR3 cells after 48 hrs by MTT assay; type: functional, cell-based
# [34] = target: BDNF/NT-3 growth factors receptor (Homo sapiens) (UniProt Q16620); assay: Binding affinity to TRKB at 1 uM by high throughput binding assay relative to control
# [35] = target: Tyrosine-protein kinase ABL1 (Homo sapiens) (UniProt P00519); assay: Binding affinity to ABL1 at 1 uM by high throughput binding assay relative to control
# Tyrosine-protein kinase ABL1 (Homo sapiens), sequence (P00519 whole entry): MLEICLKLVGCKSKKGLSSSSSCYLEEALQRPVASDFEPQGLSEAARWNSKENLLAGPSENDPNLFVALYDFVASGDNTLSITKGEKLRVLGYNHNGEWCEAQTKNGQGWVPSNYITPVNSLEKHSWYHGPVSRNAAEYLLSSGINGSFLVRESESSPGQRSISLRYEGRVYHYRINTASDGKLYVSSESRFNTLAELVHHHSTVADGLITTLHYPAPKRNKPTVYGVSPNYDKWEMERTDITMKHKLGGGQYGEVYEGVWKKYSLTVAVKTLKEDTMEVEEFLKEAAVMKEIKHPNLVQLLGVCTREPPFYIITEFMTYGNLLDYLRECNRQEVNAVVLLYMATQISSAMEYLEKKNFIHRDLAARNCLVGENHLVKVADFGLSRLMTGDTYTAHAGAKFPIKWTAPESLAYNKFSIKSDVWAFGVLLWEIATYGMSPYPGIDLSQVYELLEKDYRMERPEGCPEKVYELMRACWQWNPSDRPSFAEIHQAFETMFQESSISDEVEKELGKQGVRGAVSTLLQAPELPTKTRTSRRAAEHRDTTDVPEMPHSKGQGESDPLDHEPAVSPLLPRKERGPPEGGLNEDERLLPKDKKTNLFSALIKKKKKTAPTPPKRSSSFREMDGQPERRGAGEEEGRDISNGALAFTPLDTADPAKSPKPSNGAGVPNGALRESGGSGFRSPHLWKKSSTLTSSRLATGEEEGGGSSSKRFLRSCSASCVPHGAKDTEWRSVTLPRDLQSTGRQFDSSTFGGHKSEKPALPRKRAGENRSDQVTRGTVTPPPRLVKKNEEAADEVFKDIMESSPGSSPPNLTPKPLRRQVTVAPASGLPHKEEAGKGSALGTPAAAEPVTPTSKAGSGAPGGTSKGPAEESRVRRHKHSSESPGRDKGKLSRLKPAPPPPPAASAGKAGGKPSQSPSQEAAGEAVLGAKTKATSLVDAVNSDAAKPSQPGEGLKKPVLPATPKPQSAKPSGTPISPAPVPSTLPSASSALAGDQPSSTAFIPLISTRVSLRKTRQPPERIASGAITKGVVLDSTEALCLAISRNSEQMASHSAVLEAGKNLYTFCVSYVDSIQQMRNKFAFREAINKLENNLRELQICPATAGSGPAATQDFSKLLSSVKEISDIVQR
# [36] = target: Tyrosine-protein kinase JAK2 (Homo sapiens) (UniProt O60674); assay: Binding affinity to JAK2 at 1 uM by high throughput binding assay relative to control
# [37] = target: T2, High affinity nerve growth factor receptor (Homo sapiens, UniProt P04629); assay: Inhibition of TRKA assessed as [gamma33P]ATP incorporation into substrate
# [38] = target: cAMP-dependent protein kinase catalytic subunit alpha (Homo sapiens) (UniProt P17612); assay: Binding affinity to PKACalpha at 1 uM by high throughput binding assay relative to control
# [39] = target: Rho-associated protein kinase 2 (Homo sapiens) (UniProt O75116); assay: Binding affinity to ROCK2 at 1 uM by high throughput binding assay relative to control
# [40] = target: T2, High affinity nerve growth factor receptor; conditions: MCF7, 0.1 to 10 uM
# Target sequence in this assay (P04629 33-796 limits assumed): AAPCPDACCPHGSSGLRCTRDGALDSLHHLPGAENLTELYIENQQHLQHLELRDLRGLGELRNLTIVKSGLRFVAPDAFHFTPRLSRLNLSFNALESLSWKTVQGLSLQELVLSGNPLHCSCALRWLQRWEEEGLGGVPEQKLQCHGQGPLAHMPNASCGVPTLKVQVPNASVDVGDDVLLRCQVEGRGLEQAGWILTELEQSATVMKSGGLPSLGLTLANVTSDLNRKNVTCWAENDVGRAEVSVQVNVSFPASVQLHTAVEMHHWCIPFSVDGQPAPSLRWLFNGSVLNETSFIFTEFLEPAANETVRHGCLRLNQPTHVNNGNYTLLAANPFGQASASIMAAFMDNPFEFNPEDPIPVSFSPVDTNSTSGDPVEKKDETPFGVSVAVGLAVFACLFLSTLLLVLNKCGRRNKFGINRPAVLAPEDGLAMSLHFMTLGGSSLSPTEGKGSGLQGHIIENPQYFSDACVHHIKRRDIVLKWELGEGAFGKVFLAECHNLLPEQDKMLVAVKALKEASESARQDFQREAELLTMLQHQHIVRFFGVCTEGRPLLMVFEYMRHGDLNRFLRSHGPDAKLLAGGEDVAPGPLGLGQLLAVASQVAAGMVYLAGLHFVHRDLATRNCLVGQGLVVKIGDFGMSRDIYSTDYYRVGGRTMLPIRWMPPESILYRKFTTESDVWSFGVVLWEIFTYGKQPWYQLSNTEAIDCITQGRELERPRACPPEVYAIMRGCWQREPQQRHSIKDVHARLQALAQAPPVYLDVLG
# Description: Inhibition of TRKA-induced AKT phosphorylation in human MCF7 cells at 0.1 to 10 uM by Western blot analysis
# HUVEC [41] = assay: Antiangiogenic activity against HUVEC assessed as inhibition of VEGF-induced tube formation after 10 hrs by phase-contrast microscopic analysis; type: functional, cell-based; conditions: Homo sapiens
# MCF7 [42] = assay: cells; conditions: Homo sapiens, MCF7, 48 h
# Description: as §1
# MCF7 [43] = assay: Inhibition of hypoxia-induced HIF1alpha expression in human MCF7 cells after 6 hrs; type: functional, cell-based
# [44] = target: T1, Mast/stem cell growth factor receptor Kit; assay: Binding affinity to KIT at 1 uM by high throughput binding assay relative to control
# [45] = target: T2, High affinity nerve growth factor receptor; conditions: MCF7, 0.1 to 10 uM; remark: listed apart in the source
# Target sequence in this assay (P04629 33-796 limits assumed): as above
# Description: Inhibition of TRKA phosphorylation in human MCF7 cells at 0.1 to 10 uM by Western blot analysis
# [46] = target: Dual specificity mitogen-activated protein kinase kinase 1 (Homo sapiens) (UniProt Q02750); assay: Binding affinity to MEK1 at 1 uM by high throughput binding assay relative to control
# Mitogen-activated protein kinase 3 (Homo sapiens), sequence (P27361 whole entry): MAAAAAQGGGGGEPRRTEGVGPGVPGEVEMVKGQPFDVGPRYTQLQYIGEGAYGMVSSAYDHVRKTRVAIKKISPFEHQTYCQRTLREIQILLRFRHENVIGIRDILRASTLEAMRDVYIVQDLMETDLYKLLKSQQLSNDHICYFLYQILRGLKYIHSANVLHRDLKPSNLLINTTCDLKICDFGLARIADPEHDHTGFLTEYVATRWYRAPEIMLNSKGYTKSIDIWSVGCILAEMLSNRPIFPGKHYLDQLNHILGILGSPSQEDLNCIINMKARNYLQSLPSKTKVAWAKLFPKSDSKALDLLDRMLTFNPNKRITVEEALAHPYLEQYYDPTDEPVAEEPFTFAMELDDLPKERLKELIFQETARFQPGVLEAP
compound,measurement,setting,value
Nc1cc(NS(=O)(=O)c2cccc(C(F)(F)F)c2)cc(-c2cnc3[nH]cc(-c4ccncc4)c3c2)c1,Activity,MCF7 [1],Active
same,Activity,[2],100%
same,Activity,MCF7 [3],Active
same,inhibition,HUVEC [4],Dose-dependent effect
same,Activity,[5],61%
same,Activity,MCF7 [6],Active
same,Activity,[7],100%
same,inhibition,[8],Active
same,IC50,[9],145 nM
same,Activity,[10],64%
same,Activity,[11],90%
same,Activity,MCF7 [12],Active
same,Activity,[13],85%
same,Activity,[14],100%
same,Activity,[15],94%
same,Activity,MCF7 [16],Active
same,Activity,[17],69%
same,Activity,[18],100%
same,Activity,[19],100%
same,Activity,[20],100%
same,Activity,[21],96%
same,Activity,[22],26%
same,Activity,[23],79%
same,Activity,[24],97%
same,Activity,[25],100%
same,growth inhibition (GI),MCF7 [26],40%
same,Activity,[27],75%
same,Activity,[28],81%
same,Activity,MCF7 [29],Active
same,Activity,MCF7 [30],Active
same,Activity,[31],88%
same,Activity,[32],100%
same,Activity,MCF7 [33],Dose-dependent effect
same,Activity,SK-BR-3,Dose-dependent effect
same,Activity,[34],1.2%
same,Activity,[35],81%
same,Activity,[36],34%
same,IC50,[37],1.67 nM
same,Activity,[38],88%
same,Activity,[39],50%
same,inhibition,[40],Active
same,inhibition,HUVEC [41],Dose-dependent effect
same,IC50,MCF7 [42],4200 nM
same,inhibition,MCF7 [43],Dose-dependent effect
same,Activity,[44],3%
same,inhibition,[45],Active
same,Activity,[46],100%
